Source: patent publication US10266497B2 (ABIDE THERAPEUTICS, INC., priority 2017, dated 2019)

Assays:
MAGL [1] = target: T1, MAGL (Mus musculus, UniProt O35678); assay: In vitro competitive activity-based protein profiling, MAGL, mouse; settings: read-out: MAGL % inh. 1 μM (mouse)
T1 sequence (O35678 1-303): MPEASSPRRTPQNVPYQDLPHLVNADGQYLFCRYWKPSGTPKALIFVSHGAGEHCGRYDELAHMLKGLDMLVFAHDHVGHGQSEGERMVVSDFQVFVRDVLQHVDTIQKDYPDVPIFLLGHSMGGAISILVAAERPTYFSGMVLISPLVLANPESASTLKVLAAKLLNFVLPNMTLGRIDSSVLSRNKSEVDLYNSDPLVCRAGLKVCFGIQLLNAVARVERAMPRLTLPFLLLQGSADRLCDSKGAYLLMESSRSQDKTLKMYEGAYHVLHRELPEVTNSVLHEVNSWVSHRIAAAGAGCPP

MAGL [2] = target: T2, MAGL (Homo sapiens, UniProt Q99685); assay: In vitro competitive activity-based protein profiling, MAGL, human; settings: read-out: MAGL % inh. 1 μM (human)
T2 sequence (Q99685 1-303): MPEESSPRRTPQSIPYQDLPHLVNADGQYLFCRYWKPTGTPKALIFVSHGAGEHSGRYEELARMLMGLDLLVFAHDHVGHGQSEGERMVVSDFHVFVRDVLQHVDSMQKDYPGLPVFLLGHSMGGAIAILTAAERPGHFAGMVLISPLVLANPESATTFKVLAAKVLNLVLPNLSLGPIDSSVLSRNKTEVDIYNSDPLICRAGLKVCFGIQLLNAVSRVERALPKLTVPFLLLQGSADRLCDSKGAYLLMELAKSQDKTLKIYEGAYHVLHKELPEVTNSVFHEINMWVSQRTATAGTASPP

MAGL [3] = target: T1, MAGL; assay: Mouse brain proteomes from inhibitor treated mice (oral gavage, sacrificed 4 h after administration); type: in vivo; design: mouse brain membrane fraction for mouse assays; from tissue; host or cells: mouse brain (membrane fraction in vitro; brain proteomes of treated C57Bl/6J mice in vivo); settings: 5 mg/kg oral gavage, brain proteome 4 h after administration, read-out: MAGL % inh. 5 mg/kg (mouse)

SMILES: CC(C)c1cccc(O[C@H]2C[C@@H]3CN(C(=O)n4ccc(C(=O)O)n4)C[C@@H]3C2)c1 [Example 220, 1-(trans-5-(3-isopropylphenoxy)ocatahydrocyclo-penta[c]pyrrole-2-carbonyl)-1H-pyrazole-3-carboxylic acid]
- inhibition at 1 µM (MAGL [1]): > 75%
- inhibition at 1 µM (MAGL [2]): > 75%
- inhibition at 5 mg/kg (MAGL [3]): 25 to 50%

SMILES: O=C(O)c1ccn(C(=O)N2C[C@H]3C[C@H](Oc4cc(Cl)cc(Cl)c4)C[C@H]3C2)n1 [Example 230, 1-(trans-5-(3,5-dichlorophenoxy)octahydrocyclopenta [c]pyrrole-2-carbonyl)-1H-pyrazole-3-carboxylic acid]
- inhibition at 1 µM (MAGL [1]): > 75%
- inhibition at 1 µM (MAGL [2]): > 75%
- inhibition at 5 mg/kg (MAGL [3]): 0 to 25%

SMILES: O=C(O)c1ccn(C(=O)N2C[C@H]3C[C@H](Oc4cccc(-c5cccnc5)c4)C[C@H]3C2)n1 [Example 241, 1-(trans-5-(3-(pyridin-3-yl)phenoxy)octa-hydrocyclopenta[c]pyrrole-2-carbonyl)-1H-pyrazole-3-carboxylic acid]
- inhibition at 1 µM (MAGL [1]): > 75%
- inhibition at 1 µM (MAGL [2]): > 75%
- inhibition at 5 mg/kg (MAGL [3]): 0 to 25%

SMILES: Cc1cc(-c2ccccc2)ccc1CN1CCN(C(=O)n2ccc(C(=O)O)n2)[C@H](C)C1 [Example 245, (R)-1-(2-methyl-4-((3-methyl-[1,1′-biphenyl]-4-yl)methyl)piperazine-1-carbonyl)-1H-pyrazole-3-carboxylic acid]
- inhibition at 1 µM (MAGL [1]): > 75%
- inhibition at 1 µM (MAGL [2]): > 75%
- inhibition at 5 mg/kg (MAGL [3]): 0 to 25%

SMILES: Cc1ccc(Oc2cccc(CN3CCN(C(=O)n4ccc(C(=O)O)n4)CC3)c2)cc1 [Example 251, 1-(4-(3-(p-tolyloxy)benzyl)pi-perazine-1-carbonyl)-1H-pyrazole-3-carboxylic acid]
- inhibition at 1 µM (MAGL [1]): > 75%
- inhibition at 1 µM (MAGL [2]): > 75%
- inhibition at 5 mg/kg (MAGL [3]): 0 to 25%

SMILES: Cc1cn(C(=O)N2C[C@H]3C[C@H](OCc4cc(F)cc(Cl)c4)C[C@H]3C2)nc1C(=O)O [Example 252, 1-(trans-5-((3-chloro-5-fluorobenzyl)oxy)octahydrocyclopenta [c]pyrrole-2-carbonyl)-4-methyl-1H-pyrazole-3-carboxylic acid]
- inhibition at 1 µM (MAGL [1]): > 75%
- inhibition at 1 µM (MAGL [2]): > 75%
- inhibition at 5 mg/kg (MAGL [3]): 0 to 25%

SMILES: C[C@@H]1C[C@H](N(C)Cc2cccc(C(F)(F)F)c2)CCN1C(=O)n1ccc(C(N)=O)n1 [Example 257, 1-((2R,4R)-2-methyl-4-(methyl(3-(trifluoromethyl)benzyl)amino)piper-idine-1-carbonyl)-1H-pyrazole-3-carboxamide]
- inhibition at 1 µM (MAGL [1]): > 75%
- inhibition at 1 µM (MAGL [2]): > 75%
- inhibition at 5 mg/kg (MAGL [3]): > 75%

SMILES: C[C@@H]1C[C@@H](N(C)Cc2cccc(C(F)(F)F)c2)CCN1C(=O)n1ccc(C(N)=O)n1 [Example 260, 1-((2R,4S)-2-methyl-4-(methyl(3-(trifluoromethyl)benzyl)amino)piper-idine-1-carbonyl)-1H-pyrazole-3-carboxamide]
- inhibition at 1 µM (MAGL [1]): > 75%
- inhibition at 1 µM (MAGL [2]): > 75%
- inhibition at 5 mg/kg (MAGL [3]): > 75%

SMILES: O=C(O)c1ccn(C(=O)N2CCN(Cc3cc(Cl)cc(-c4cncnc4)c3)CC2)n1 [Example 269, 1-(4-(3-chloro-5-(pyrimidin-5-yl)benzyl)piperazine-1-carbonyl)-1H-pyrazole-3-carboxylic acid]
- inhibition at 1 µM (MAGL [1]): > 75%
- inhibition at 1 µM (MAGL [2]): > 75%
- inhibition at 5 mg/kg (MAGL [3]): 0 to 25%

SMILES: C[C@@H]1CN(Cc2ccc(-c3ccccc3)cc2Cl)CCN1C(=O)n1ccc(C(=O)O)n1 [Example 291, (R)-1-(4-((3-chloro-[1,1′-biphenyl]-4-yl)methyl)-2-methylpiperazine-1-carbonyl)-1H-pyrazole-3-carboxylic acid]
- inhibition at 1 µM (MAGL [1]): > 75%
- inhibition at 1 µM (MAGL [2]): > 75%
- inhibition at 5 mg/kg (MAGL [3]): 25 to 50%

SMILES: O=C(O)c1ccn(C(=O)N2CCC(Oc3ccc(C(F)(F)F)cc3N3CCCC3)CC2)n1 [Example 307, 1-(4-(2-(pyrrolidin-1-yl)-4-(trifluoromethyl)phenoxy)piperidine-1-carbonyl)-1H-pyrazole-3-carboxylic acid]
- inhibition at 1 µM (MAGL [1]): > 75%
- inhibition at 1 µM (MAGL [2]): > 75%
- inhibition at 5 mg/kg (MAGL [3]): 0 to 25%

SMILES: O=C(O)c1ccn(C(=O)N2CCC(Oc3cc(N4CCCC4)cc(C(F)(F)F)c3)CC2)n1 [Example 308, 1-(4-(3-(pyrrolidin-1-yl)-5-(trifluoromethyl)phenoxy)piperidine-1-carbonyl)-1H-pyrazole-3-carboxylic acid]
- inhibition at 1 µM (MAGL [1]): > 75%
- inhibition at 1 µM (MAGL [2]): > 75%
- inhibition at 5 mg/kg (MAGL [3]): 0 to 25%

SMILES: C[C@H]1CN(Cc2cccc(Oc3ccc(Cl)cc3)c2)CCN1C(=O)n1ccc(C(=O)O)n1 [Example 311, (S)-1-(4-(3-(4-chlorophenoxy)benzyl)-2-methylpiperazine-1-carbonyl)-1H-pyrazole-3-carboxylic acid]
- inhibition at 1 µM (MAGL [1]): > 75%
- inhibition at 1 µM (MAGL [2]): > 75%
- inhibition at 5 mg/kg (MAGL [3]): 0 to 25%

SMILES: C[C@@H]1CN(Cc2ccc(C(F)(F)F)cc2N2CCCC2)CCN1C(=O)n1ccc(C(=O)O)n1 [Example 327, (R)-1-(2-methyl-4-(2-(pyrrolidin-1-yl)-4-(trifluoromethyl)benzyl)piperazine-1-carbonyl)-1H-pyrazole-3-carboxylic acid]
- inhibition at 1 µM (MAGL [1]): > 75%
- inhibition at 1 µM (MAGL [2]): > 75%
- inhibition at 5 mg/kg (MAGL [3]): 0 to 25%

SMILES: C[C@H]1CN(Cc2ccc(C(F)(F)F)cc2N2CCCC2)CCN1C(=O)n1ccc(C(=O)O)n1 [Example 328, (S)-1-(2-methyl-4-(2-(pyrrolidin-1-yl)-4-(trifluoromethyl)benzyl)piperazine-1-carbonyl)-1H-pyrazole-3-carboxylic acid]
- inhibition at 1 µM (MAGL [1]): > 75%
- inhibition at 1 µM (MAGL [2]): > 75%
- inhibition at 5 mg/kg (MAGL [3]): 0 to 25%

SMILES: O=C(O)c1ccn(C(=O)N2CCC3(CCN(Cc4cc(Cl)cc(Cl)c4Cl)C3)CC2)n1 [Example 337, 1-(2-(2,3,5-trichlorobenzyl)-2,8-diazaspiro[4.5]decane-8-carbonyl)-1H-pyrazole-3-carboxylic acid]
- inhibition at 1 µM (MAGL [1]): > 75%
- inhibition at 1 µM (MAGL [2]): > 75%
- inhibition at 5 mg/kg (MAGL [3]): 0 to 25%

SMILES: C[C@H]1CN(Cc2cc(F)cc(Oc3ccc(Cl)cc3)c2)CCN1C(=O)n1ccc(C(=O)O)n1 [Example 347, (S)-1-(4-(3-(4-chlorophenoxy)-5-fluorobenzyl)-2-methylpiperazine-1-carbonyl)-1H-pyrazole-3-carboxylic acid]
- inhibition at 1 µM (MAGL [1]): > 75%
- inhibition at 1 µM (MAGL [2]): > 75%
- inhibition at 5 mg/kg (MAGL [3]): 0 to 25%

SMILES: C[C@@H]1CC[C@@H](C)N1c1cc(C(F)(F)F)ccc1CN1CCN(C(=O)n2ccc(C(=O)O)n2)CC1 [Example 359, 1-(4-(2-((2R,5R)-2,5-dimethylpyrrolidin-1-yl)-4-(trifluoromethyl)benzyl)piperazine-1-carbonyl)-1H-pyrazole-3-carboxylic acid]
- inhibition at 1 µM (MAGL [1]): > 75%
- inhibition at 1 µM (MAGL [2]): > 75%
- inhibition at 5 mg/kg (MAGL [3]): 0 to 25%

SMILES: C[C@H]1CC[C@H](C)N1c1cc(C(F)(F)F)ccc1CN1CCN(C(=O)n2ccc(C(=O)O)n2)CC1 [Example 360, 1-(4-(2-((2S,5S)-2,5-dimethylpyrrolidin-1-yl)-4-(trifluoromethyl)benzyl)piperazine-1-carbonyl)-1H-pyrazole-3-carboxylic acid]
- inhibition at 1 µM (MAGL [1]): > 75%
- inhibition at 1 µM (MAGL [2]): > 75%
- inhibition at 5 mg/kg (MAGL [3]): 0 to 25%

SMILES: CN(Cc1cc(N2CCCC2)cc(C(F)(F)F)c1)C1(C)CCN(C(=O)n2ccc(C(=O)O)n2)CC1 [Example 381, 1-(4-methyl-4-(methyl(3-(pyrrolidin-1-yl)-5-(trifluoromethyl)benzyl)amino)piper-idine-1-carbonyl)-1H-pyrazole-3-carboxylic acid]
- inhibition at 1 µM (MAGL [1]): > 75%
- inhibition at 1 µM (MAGL [2]): > 75%
- inhibition at 5 mg/kg (MAGL [3]): 0 to 25%

SMILES: CN(Cc1cccc(C(F)(F)F)c1N1CCCC1)C1(C)CCN(C(=O)n2ccc(C(=O)O)n2)CC1 [Example 382, 1-(4-methyl-4-(methyl(2-(pyrrolidin-1-yl)-3-(trifluoromethyl)benzyl)amino)piper-idine-1-carbonyl)-1H-pyrazole-3-carboxylic acid]
- inhibition at 1 µM (MAGL [1]): > 75%
- inhibition at 1 µM (MAGL [2]): > 75%
- inhibition at 5 mg/kg (MAGL [3]): 0 to 25%

SMILES: CN(Cc1cc(C(F)(F)F)ccc1N1CCCC1)C1(C)CCN(C(=O)n2ccc(C(=O)O)n2)CC1 [Example 384, 1-(4-methyl-4-(methyl(2-(pyrrolidin-1-yl)-5-(trifluoromethyl)benzyl)amino)piper-idine-1-carbonyl)-1H-pyrazole-3-carboxylic acid]
- inhibition at 1 µM (MAGL [1]): > 75%
- inhibition at 1 µM (MAGL [2]): > 75%
- inhibition at 5 mg/kg (MAGL [3]): 0 to 25%

SMILES: CN(Cc1ccc(C(F)(F)F)c(N2CCCC2)c1)C1(C)CCN(C(=O)n2ccc(C(=O)O)n2)CC1 [Example 385, 1-(4-methyl-4-(methyl(3-(pyrrolidin-1-yl)-4-(trifluoromethyl)benzyl)amino)piper-idine-1-carbonyl)-1H-pyrazole-3-carboxylic acid]
- inhibition at 1 µM (MAGL [1]): > 75%
- inhibition at 1 µM (MAGL [2]): > 75%
- inhibition at 5 mg/kg (MAGL [3]): 0 to 25%
